Source: US6472348B1, “Pyridone derivatives and herbicides” (Kumiai Chemical Industry Co., Ltd., priority 1996, dated 2002)

Key:
Assay type in all cases: in vivo
barnyardgrass (Ec) [1] = assay: Test Example 2: herbicidal effects by upland field soil treatment; conditions: 100 g of the active ingredient per 10 ares;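 also: grade of growth control; 5 = at least 90%; 4 = 70 to 90%; 3 = 50 to 70%; 2 = 30 to 50%; 1 = 10 to 30%; 0 = under 10%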
From the text: (§1) (Test on Herbicidal Effects by Upland Field Soil Treatment)

pale smartweed (Po) [2] = assay: as above; conditions: 100 g of the active ingredient per 10 ares
From the text: as §1

rice flatsedge (Ci) [3] = assay: as above; conditions: 100 g of the active ingredient per 10 ares
From the text: as §1

slender amaranth (Am) [4] = assay: as above; conditions: 100 g of the active ingredient per 10 ares
From the text: as §1

[5] = system: common lambsquarters (Ch); assay: as above; conditions: 100 g of the active ingredient per 10 ares
From the text: as §1

Digitaria ciliaris (Di) = assay: as above; conditions: 100 g of the active ingredient per 10 ares;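 also: grade of growth control; 5 = at least 90%; 4 = 70 to 90%; 3 = 50 to 70%; 2 = 30 to 50%; 1 = 10 to 30%; 0 = under 10%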
From the text: as §1

Diaitaria ciliaris (Di) = assay: Test Example 3: herbicidal effects by upland field foliage treatment; design: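 grade of growth control; 5 = at least 90%; 4 = 70 to 90%; 3 = 50 to 70%; 2 = 30 to 50%; 1 = 10 to 30%; 0 = under 10%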
How it was run: (§2)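 Post-emergence upland foliage test. Seedlings grown 2 weeks under glass in pots (120 cm^2) of sand, seed topped with soil; treated on the foliage, kept in greenhouse, then assessed at day 14 using rating standards.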

barnyardgrass (Ec) [6] = assay: as above; design: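 grade of growth control; 5 = at least 90%; 4 = 70 to 90%; 3 = 50 to 70%; 2 = 30 to 50%; 1 = 10 to 30%; 0 = under 10%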
How it was run: as §2

pale smartweed (Po) [7] = assay: as above; design: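 grade of growth control; 5 = at least 90%; 4 = 70 to 90%; 3 = 50 to 70%; 2 = 30 to 50%; 1 = 10 to 30%; 0 = under 10%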
How it was run: as §2

rice flatsedge (Ci) [8] = assay: as above; design: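 grade of growth control; 5 = at least 90%; 4 = 70 to 90%; 3 = 50 to 70%; 2 = 30 to 50%; 1 = 10 to 30%; 0 = under 10%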
How it was run: as §2

slender amaranth (Am) [9] = assay: as above; design: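 grade of growth control; 5 = at least 90%; 4 = 70 to 90%; 3 = 50 to 70%; 2 = 30 to 50%; 1 = 10 to 30%; 0 = under 10%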
How it was run: as §2

[10] = system: common lambsquarters (Ch); assay: as above; design: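 grade of growth control; 5 = at least 90%; 4 = 70 to 90%; 3 = 50 to 70%; 2 = 30 to 50%; 1 = 10 to 30%; 0 = under 10%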
How it was run: as §2

barnyardgrass (Ec) [11] = assay: Test Example 1: herbicidal effects by paddy field soil treatment; conditions: 100 g of the active ingredient per 10 ares, 21st day after the application, index 0-5 of Table 47;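 also: grade of growth control; 5 = at least 90%; 4 = 70 to 90%; 3 = 50 to 70%; 2 = 30 to 50%; 1 = 10 to 30%; 0 = under 10%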
How it was run: (§3)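 Greenhouse pot test in flooded paddy soil, dosed at 100 g a.i. per 10 ares; effect scored on day 21.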

monochoria (Mo) = assay: as above; conditions: 100 g of the active ingredient per 10 ares, 21st day after the application, index 0-5 of Table 47;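 also: grade of growth control; 5 = at least 90%; 4 = 70 to 90%; 3 = 50 to 70%; 2 = 30 to 50%; 1 = 10 to 30%; 0 = under 10%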
How it was run: as §3

bulrush (Sc) = assay: as above; conditions: 100 g of the active ingredient per 10 ares, 21st day after the application, index 0-5 of Table 47
How it was run: as §3

[12] = evaluated on the 21st day after application
[13] = 100 g active ingredient per 10 ares, evaluated 14th day after treatment
[14] = 21st day after the application, index 0-5 of Table 47
[15] = 100 g of the active ingredient per 10 ares, evaluated on the 14th day after treatment

SMILES	Herbicidal effects Ec (barnyardgrass (Ec) [1]; [12])	Herbicidal effects Po (pale smartweed (Po) [2]; [12])	Herbicidal effects Ci (rice flatsedge (Ci) [3]; [12])	Herbicidal effects Am (slender amaranth (Am) [4]; [12])	Herbicidal effects Ch [5, 12]	Herbicidal effects Di (Digitaria ciliaris (Di); [12])	Herbicidal effects Di (Diaitaria ciliaris (Di); [13])	Herbicidal effects Ec (barnyardgrass (Ec) [6]; [13])	Herbicidal effects Po (pale smartweed (Po) [7]; [13])	Herbicidal effects Ci (rice flatsedge (Ci) [8]; [13])	Herbicidal effects Am (slender amaranth (Am) [9]; [13])	Herbicidal effects Ch [10, 13]	Herbicidal effects Ec (barnyardgrass (Ec) [11])	Herbicidal effects Mo (monochoria (Mo))	Herbicidal effects Sc (bulrush (Sc))	also measured
C#CCN1C(=O)COc2ccc(-c3ccc(C(F)(F)F)n(C)c3=O)cc21 [2-29]	5	5	5	5	5	5	5	5	5	5	5	5	5	5	5	
CC(=O)c1cc(-c2ccc(C(F)(F)F)n(C)c2=O)c(F)cc1Cl [Compound 1-190]	5	5	5	5	5	5	5	5	5	5	5	5	5	5	5	
CC(C)C(O)c1cc(-c2ccc(C(F)(F)F)n(C)c2=O)c(F)cc1Cl (stereo not drawn) [Compound 1-195]	5	5	5	5	5	5	5	5	5	5	5	5	5	5	5	
CCOCOc1cc(-c2ccc(C(F)(F)F)n(C)c2=O)c(Cl)cc1Cl [Compound 1-206]	5	5	5	5	5	5	5	5	5	5	5	5	5	5	5	
C#CCNC(=O)COc1cc(-c2ccc(C(F)(F)F)n(C)c2=O)c(F)cc1Cl [Compound 1-210]	5	5	5	5	5	4	5	4	5	5	5	5	5	5	5	
COCCOc1cc(-c2ccc(C(F)(F)F)n(C)c2=O)c(Cl)cc1Cl [Compound 1-211]	5	5	5	5	5	5	5	4	5	5	5	5	5	5	5	
CNS(=O)(=O)c1cc(-c2ccc(C(F)(F)F)n(C)c2=O)c(Cl)cc1Cl [Compound 1-256]	5	5	5	5	5	5	5	5	5	5	5	5	5	5	5	
C=C(C)CN1C(=O)COc2cc(F)c(-c3ccc(C(F)(F)F)n(C)c3=O)cc21 [Compound 2-11]	5	5	5	5	5	5	5	5	5	5	5	5	5	5	5	
CC=CCN1C(=O)COc2cc(F)c(-c3ccc(C(F)(F)F)n(C)c3=O)cc21 [Compound 2-12]	5	5	5	5	5	5	5	5	5	5	5	5	5	5	5	
C=C(Cl)CN1C(=O)COc2cc(F)c(-c3ccc(C(F)(F)F)n(C)c3=O)cc21 [Compound 2-13]	5	5	5	5	5	5	5	5	5	5	5	5	5	5	5	
CN1C(=O)COc2cc(F)c(-c3ccc(C(F)(F)F)n(C)c3=O)cc21 [Compound 2-16]	5	5	5	5	5	5	5	5	5	5	5	5	5	5	5	
Cc1cc2c(-c3ccc(C(F)(F)F)n(C)c3=O)c(Cl)cc(Cl)c2o1 [Compound 4-10]	5	5	5	5	5	5	5	5	5	5	5	5	5	5	5	
Cn1c(C(F)(F)F)ccc(-c2c(Cl)cc(Cl)c3oc(CBr)cc23)c1=O [Compound 4-16]	5	5	5	5	5	5	5	5	5	5	5	5	5	5	5	
Cc1cc2c(-c3ccc(C(F)(F)F)n(C)c3=O)ccc(Cl)c2o1 [Compound 4-24]	4	5	5	5	5	5	5	4	5	5	5	5	5	5	5	
Cn1c(C(F)(F)F)ccc(-c2c(Cl)cc(Cl)c3oc(C(Br)Br)cc23)c1=O [Compound 4-29]	5	5	5	5	5	5	5	5	5	5	5	5	5	5	5	
CCOCc1cc2c(-c3ccc(C(F)(F)F)n(C)c3=O)c(F)cc(Cl)c2o1 [Compound 4-31]	5	5	5	5	5	5	5	5	5	5	5	5	5	5	5	
C=CCOc1cc(-c2cn(C)c(C(F)(F)F)cc2=O)c(F)cc1Cl [Compound 6-8]	5	5	5	5	5	5	5	5	5	5	5	5	5	5	5	
Cc1cc(-c2ccc(Cl)cc2Cl)c(=O)n(C)c1C(F)(F)F [Compound No. 1-11]													5	5	5	Herbicidal effects Ec (barnyardgrass (Ec) [1]; [14]): 5; Herbicidal effects Po (pale smartweed (Po) [2]; [14]): 5; Herbicidal effects Ci (rice flatsedge (Ci) [3]; [14]): 5; Herbicidal effects Am (slender amaranth (Am) [4]; [14]): 5; Herbicidal effects Ch [5, 14]: 5; Herbicidal effects Di (Digitaria ciliaris (Di); [14]): 5; Herbicidal effects Di (Diaitaria ciliaris (Di); [15]): 5; Herbicidal effects Ec (barnyardgrass (Ec) [6]; [15]): 5; Herbicidal effects Po (pale smartweed (Po) [7]; [15]): 5; Herbicidal effects Ci (rice flatsedge (Ci) [8]; [15]): 5; Herbicidal effects Am (slender amaranth (Am) [9]; [15]): 5; Herbicidal effects Ch [10, 15]: 5
